# Laboratory results published in patent US20230375576A1, “METHODS FOR THE TREATMENT OF FAMILIAL HETEROZYGOUS AND HOMOZYGOUS HYPERCHOLESTEROLEMIA WITH CYCLODEXTRINS” (Beren Therapeutics P.B.C., priority 2021, published 2023).
# Entries after “also recorded” stand apart in the source; their conditions may differ.
# Legend:
# [1] = Cholesterol crystal dissolution capacity in plasma of HoFH patients (D6-labeled cholesterol in filtrate, GC-MS); details: human plasma from HoFH patients; D6-labeled cholesterol crystals added; compared to control group; FIG. 1A
# Description: D6-labeled cholesterol crystals were added to human plasma collected from homozygous familial hypercholesterolemia (HoFH) patients treated with HPBCD (2-hydroxypropyl-beta-cyclodextrin). The reaction mixtures were filtered to remove crystals and the filtrate was assayed for the presence of D6-labeled cholesterol using gas chromatography-mass spectroscopy (GC-MS). Cholesterol measured in the filtrate indicated the ability of HPBCD (2-hydroxypropyl-beta-cyclodextrin) to dissolve cholesterol crystals.
# [2] = system: ABCA1; assay: mRNA expression of ABCA1 in whole blood from HoFH patients; type: cell-based, human; details: 1.2 mM HPBCD, 6 hours, normalized to saline control, FIG. 1B
# Description: This example aims to investigate the effects of HPBCD (2-hydroxypropyl-beta-cyclodextrin) on cholesterol efflux capacity in HoFH patients. HPBCD was added to whole blood obtained from HoFH patients at concentration of 1.2 mM. Untreated samples were used as control. The mixtures were incubated for 6 hours. Total mRNA was isolated and mRNA expression levels were measured. Data is shown as the level of gene expression normalized to saline control.
# [3] = system: Ldlr−/− mice; assay: Effect on liver weight in Ldlr−/− mouse model; type: in vivo; details: Ldlr−/− mice on Western diet; 2 g/kg subcutaneously after five weeks; livers weighed up to 4 weeks post-HPBCD; versus untreated mice; FIG. 3
# Text: To evaluate the effect of HPBCD (2-hydroxypropyl-beta-cyclodextrin) on liver weight, experiments using Ldlr−/− mice were designed as described in FIGS. 2A and 2B. The mice were fed normal chow diet (NC) or high-fat (42%), high-cholesterol (1.2) diet Western diet (WD) as described in Table 1 and Table 2. After five weeks, the mice were subcutaneously injected with 2 g/kg […]. The livers were excised and weighed after five weeks (Group 1, 2, 6), six weeks (Group 3), seven weeks (Group 4), and nine weeks (Group 5), respectively. [table] [table]
structure (smiles),measurement,setting,value
"CC(O)COC[C@H]1O[C@@H]2O[C@H]3[C@H](O)[C@@H](O)[C@@H](O[C@H]4[C@H](O)[C@@H](O)[C@@H](O[C@H]5[C@H](O)[C@@H](O)[C@@H](O[C@H]6[C@H](O)[C@@H](O)[C@@H](O[C@H]7[C@H](O)[C@@H](O)[C@@H](O[C@H]8[C@H](O)[C@@H](O)[C@@H](O[C@H]1[C@H](O)[C@H]2O)O[C@@H]8COCC(C)O)O[C@@H]7COCC(C)O)O[C@@H]6COCC(C)O)O[C@@H]5COCC(C)O)O[C@@H]4COCC(C)O)O[C@@H]3COCC(C)O (stereo partly drawn) [HPBCD, 2-hydroxypropyl-beta-cyclodextrin]",cholesterol crystal dissolution,[1],significantly increased
same,mRNA expression level of ABCA1,[2],significant induction
same,liver weight,[3],inhibits increase of liver weight; also recorded: did not show any further increase in liver weight
